The target of the first assay is rat EP1 receptor (Rattus norvegicus (Rat), UniProt P70597). Put plainly: Test for confirmation of EP1 receptor antagonism: inhibition of the prostaglandin E2-induced increase in intracellular calcium concentration in rat EP1 receptor-expressing COS-1 cells. The format is cell-based. The note with it: Method A: Fluo-4 NW Calcium Assay Kit, FlexStation; prostaglandin E2 10 nM; rat EP1 receptor-expressing COS-1 cells. As to the method:
(1) Preparation of Rat EP1 Expression Vector
Using Rat Kidney BD Marathon-Ready cDNA (Nippon Becton Dickinson Company, Ltd.) as a template, a forward primer shown in SEQ ID NO. 1, and a reverse primer shown in SEQ ID NO. 2, a first run of PCR was carried out using KOD-Plus-Ver 2.0 (Toyobo Co., Ltd.). Further, using this amplification product as a template, a forward primer shown in SEQ ID NO. 3, and a reverse primer shown in SEQ ID NO. 4, a second run of PCR was carried out in the same manner. The amplification product obtained by the second run of PCR was incorporated into a vector (pcDNA3.1 D/V5-His-TOPO (registered trademark), Invitrogen Japan K. K.). By a conventional method, the vector containing this amplification product was introduced to E. coli (One Shot TOP10 Competent Cells, Invitrogen Corporation) to transform. This transformed E. coli was cultured in an LB agar medium for one day. After the culture, colonies were selected and cultured in an LB liquid medium containing 50 μg/mL of ampicillin. After the culture, the vector was purified using a QIAprep Spin Miniprep Kit (Qiagen K. K.). The base sequence of the insertion site of this vector (SEQ ID NO. 5) was compared with the rat EP1 base sequence (Ptger1) registered as an accession number NM_013100 in well-known database (NCBI), and as a result, they all matched except for a single base. Further, the amino acid sequence translated by the base sequence completely matched the amino acid sequence of the rat EP1 receptor registered as an NCBI accession number NP_037232. Therefore, it was confirmed that the cloned gene sequence was a base sequence of the rat EP1 receptor and the obtained amino acid sequence was that of the rat EP1 receptor. The pcDNA3.1 D/V5-His-TOPO (registered trademark) to which the nucleic acid shown in SEQ ID NO. 5 had been inserted was taken as a rat EP1-expressing vector.
(2) Preparation of Rat EP1 Receptor-Expressing Cells
COS-1 cells (Dainippon Sumitomo Pharma Co., Ltd.) were cultured until it reached confluence in an incubator at 37° C. under a 5% CO2 gas condition, using a D-MEM liquid medium (high glucose and L-glutamine contained, Invitrogen Corporation) to which a penicillin-streptomycin solution (Invitrogen Corporation, final concentration: 100 U/mL as benzylpenicillin; 100 μg/mL as streptomycin) as an antibiotic, MEM nonessential amino acids (Invitrogen Corporation, final Concentration: 0.1 mM), and fetal calf serum (Sanko Junyaku Co., Ltd., final concentration: 10%) were added.
The cells that had reached confluence were stripped with 0.05% trypsin/0.53 mM EDTA 4Na (Invitrogen Japan K. K.) and resuspended in the liquid medium. The resuspended cells were diluted and cultured in the liquid medium at a spread ratio from 1:4 to 1:8.
The cells that had reached confluence were stripped with 0.05% trypsin/0.53 mM EDTA.4Na, and resuspended in a D-MEM liquid medium (high glucose and L-glutamine contained, Invitrogen Corporation) to which an MEM nonessential amino acid (final concentration: 0.1 mM) and fetal calf serum (final concentration: 10%) were added. In each well of a Poly D-lysine-coated 96-well microplate (BD BioCoat (registered trademark), Nippon Becton Dickinson Company, Ltd.), this resuspended cell suspension culture was prepared to be 5×10^4 cells/well in 100 μL of the liquid medium, and seeded thereon. After seeding, the cells were cultured in an incubator at 37° C. under a 5% CO2 gas condition. At a point when the cells for introduction of a rat EP1-expressing vector were adhered (about 2 hours after seeding), introduction of the rat EP1-expressing vector was carried out in the following order.
For introduction of the rat EP1-expressing vector, Lipofectamine 2000 (Invitrogen Japan K. K.) was used. […]
rat EP1 receptor, sequence (P70597 whole entry): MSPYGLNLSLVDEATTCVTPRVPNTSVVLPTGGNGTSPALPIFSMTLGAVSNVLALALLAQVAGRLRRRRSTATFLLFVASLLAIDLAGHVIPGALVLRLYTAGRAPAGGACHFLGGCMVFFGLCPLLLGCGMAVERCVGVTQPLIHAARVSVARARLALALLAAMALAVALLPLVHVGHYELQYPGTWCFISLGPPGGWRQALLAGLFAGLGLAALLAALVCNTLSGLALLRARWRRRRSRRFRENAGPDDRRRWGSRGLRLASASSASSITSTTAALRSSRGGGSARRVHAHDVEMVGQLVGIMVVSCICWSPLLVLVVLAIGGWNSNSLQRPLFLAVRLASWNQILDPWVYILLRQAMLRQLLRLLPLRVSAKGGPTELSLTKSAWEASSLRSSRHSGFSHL
Turning to `COc1cc2cc(-c3ccccc3)n(Cc3cccc(C(=O)O)c3)c2cc1F` [Example 9-43, 3-(6-fluoro-5-methoxy-2-phenylindol-1-ylmethyl)benzoic acid], the IC50 turned out to be 13 nM.

`COc1ccc2c(c1)cc(-c1ccccc1)n2Cc1cccc(C(=O)O)c1F` [Example 9-44, 2-fluoro-3-(5-methoxy-2-phenylindol-1-ylmethyl)benzoic acid]: the IC50 stood at 19 nM. Same read-out and setting: in the case of `COc1ccc2c(c1)cc(-c1ccoc1)n2Cc1cccc(C(=O)O)c1` [Example 9-32, 3-(2-furan-3-yl-5-methoxyindol-1-ylmethyl)benzoic acid] it was 11 nM. On the same count and under the same terms, in the case of `COc1ccc2c(c1)cc(-c1ccsc1)n2Cc1cccc(C(=O)O)c1` [Example 9-25, 3-(5-methoxy-2-thiophen-3-ylindol-1-ylmethyl)benzoic acid] it was 35 nM. In the case of `COc1ccc2c(c1)cc(-c1ccccc1)n2Cc1cccc(C(=O)O)c1` [Example 9-1, 3-(5-methoxy-2-phenylindol-1-ylmethyl)benzoic acid], the IC50 was found to be 21 nM.

Take `Cc1ccc2c(c1)cc(-c1ccccc1)n2Cc1cccc(C(=O)O)c1` [Example 9-13, 3-(5-methyl-2-phenylindol-1-ylmethyl)benzoic acid]: the IC50 came to 89 nM. Take “3-(5-methyl-2-phenylindol-1-yl)carboxylic acid [Comparative Example 1, reference compound]”: the IC50 is over 10000 nM. Take `COc1ccc2c(c1)cc(C(C)C)n2Cc1cccc(C(=O)O)c1` [Example 9-15, 3-(2-isopropyl-5-methoxyindol-1-ylmethyl)benzoic acid]: the IC50 was found to be 22 nM. For the molecule `COc1ccc2c(c1)cc(-c1ccsc1)n2Cc1cccc(C(=O)O)n1` [Example 9-35, 6-(5-methoxy-2-thiophen-3-ylindol-1-ylmethyl)pyridine-2-carboxylic acid], the IC50 was found to be 23 nM.

Still in this assay, the particulars now being: Method B: Calcium kit II Fluo 4, FDSS 7000; prostaglandin E2 10 nM; rat EP1 receptor-expressing COS-1 cells.
In the case of `COc1cc2cc(-c3ccoc3)n(Cc3ccc(C(=O)O)o3)c2cc1Cl` [Example 25-38, 5-(6-chloro-2-furan-3-yl-5-methoxyindol-1-ylmethyl)furan-2-carboxylic acid], the half-maximal inhibitory concentration (IC50) was found to be 22 nM. Still for that read-out and setting: in the case of `COc1cc2cc(-c3ccsc3)n(Cc3cccc(C(=O)O)n3)c2cc1C` [Example 25-39, 6-(5-methoxy-6-methyl-2-thiophen-3-ylindol-1-ylmethyl)pyridine-2-carboxylic acid] it was 37 nM; in that of `COc1cc2cc(-c3cccc(F)c3)n(Cc3cccc(C(=O)O)n3)c2cc1Cl` [Example 25-23, 6-[6-chloro-2-(3-fluorophenyl)-5-methoxyindol-1-ylmethyl]pyridine-2-carboxylic acid], 32 nM; in that of `COc1cc2cc(-c3cccc(F)c3)n(Cc3cccc(C(=O)O)n3)c2cc1F` [Example 25-29, 6-[6-fluoro-2-(3-fluorophenyl)-5-methoxyindol-1-ylmethyl]pyridine-2-carboxylic acid], 26 nM. On the same count and under the same terms, with `COc1cc2cc(-c3cccnc3)n(Cc3cccc(C(=O)O)n3)c2cc1F` [Example 25-33, 6-(6-fluoro-5-methoxy-2-pyridin-3-ylindol-1-ylmethyl)pyridine-2-carboxylic acid] the figure was 58 nM. In the case of `COc1cc2cc(-c3ccc(F)cc3)n(Cc3cccc(C(=O)O)n3)c2cc1F` [Example 25-31, 6-[6-fluoro-2-(4-fluorophenyl)-5-methoxyindol-1-ylmethyl]pyridine-2-carboxylic acid], the half-inhibitory concentration (IC50) is 33 nM. Still for that read-out and setting: in the case of `COc1ccc2c(c1)cc(-c1cc(F)ccc1F)n2Cc1cccc(C(=O)O)n1` [Example 25-41, 6-[2-(2,5-difluorophenyl)-5-methoxyindol-1-ylmethyl)pyridine-2-carboxylic acid] it was 25 nM; in that of `COc1cc2cc(-c3ccccc3)n(Cc3ccc(C(=O)O)o3)c2cc1Cl` [Example 25-26, 5-[6 chloro-5-methoxy-2-phenylindol-1-ylmethyl]furan-2-carboxylic acid], 17 nM. With `COc1cc2cc(-c3ccccc3)n(Cc3cccc(C(=O)O)n3)c2cc1C` [Example 25-16, 6-(5-methoxy-6-methyl-2-phenylindol-1-ylmethyl)pyridine-2-carboxylic acid], the IC50 was found to be 39 nM. Still for that read-out and setting: in the case of `COc1ccc2c(c1)cc(-c1ccccc1F)n2Cc1cccc(C(=O)O)c1` [Example 25-17, 3-[2-(2-fluorophenyl)-5-methoxyindol-1-ylmethyl]benzoic acid] it was 32 nM; in that of `COc1ccc2c(c1)cc(-c1cccc(F)c1)n2Cc1cccc(C(=O)O)c1` [Example 25-18, 3-[2-(3-fluorophenyl)-5-methoxyindol-1-ylmethyl]benzoic acid], 17 nM; in that of `COc1cc2cc(-c3ccccc3F)n(Cc3cccc(C(=O)O)n3)c2cc1F` [Example 25-28, 6-[6-fluoro-2-(2-fluorophenyl)-5-methoxyindol-1-ylmethyl]pyridine-2-carboxylic acid], 28 nM. Same read-out and setting: in the case of `COc1cc2cc(-c3cccnc3)n(Cc3cccc(C(=O)O)n3)c2cc1Cl` [Example 25-42, 6-(6-chloro-5-methoxy-2-pyridin-3-ylindol-1-ylmethyl)pyridine-2-carboxylic acid] it was 28 nM; in that of `COc1ccc2c(c1)cc(-c1ccc(F)cc1)n2Cc1cccc(C(=O)O)c1` [Example 25-19, 3-[2-(4-fluorophenyl)-5-methoxyindol-1-ylmethyl]benzoic acid], 36 nM. Take `COc1ccc2c(c1)cc(-c1cccc(F)c1)n2Cc1ccc(C(=O)O)o1` [Example 25-11, 5-[2-(3-fluorophenyl)-5-methoxyindol-1-ylmethyl]furan-2-carboxylic acid]: the half-maximal inhibitory concentration (IC50) was 34 nM. The same measure, in the same setting: with `COc1cc2cc(-c3ccsc3)n(Cc3cccc(C(=O)O)n3)c2cc1Cl` [Example 25-34, 6-(6-chloro-5-methoxy-2-thiophen-3-ylindol-1-ylmethyl)pyridine-2-carboxylic acid] the figure was 54 nM; with `COc1ccc2c(c1)cc(-c1ccccc1)n2Cc1csc(C(=O)O)n1` [Example 25-12], 55 nM. Consider `COc1cc2cc(-c3ccccc3)n(Cc3ccc(C(=O)O)o3)c2cc1C` [Example 25-36, 5-[5-methoxy-6-methyl-2-phenylindol-1-ylmethyl]furan-2-carboxylic acid], for which the concentration for half-maximal inhibition (IC50) came to 35 nM. For `COc1ccc2c(c1)cc(-c1cccnc1)n2Cc1cccc(C(=O)O)c1` [Example 25-13, 3-(5-methoxy-2-pyridin-3-ylindol-1-ylmethyl)benzoic acid], the IC50 was determined as 38 nM. On the same count and under the same terms, in the case of `COc1cc2cc(-c3ccoc3)n(Cc3cccc(C(=O)O)n3)c2cc1Cl` [Example 25-37, 6-(6-chloro-2-furan-3-yl-5-methoxyindol-1-ylmethyl)pyridine-2-carboxylic acid] it was 27 nM; in that of `COc1cc2cc(-c3ccccc3)n(Cc3cccc(C(=O)O)n3)c2cc1Cl` [Example 25-9, 6-(6-chloro-5-methoxy-2-phenylindol-1-ylmethyl)pyridine-2-carboxylic acid], 67 nM; in that of `CCC(C)c1cc2cc(OC)c(Cl)cc2n1Cc1cccc(C(=O)O)n1` (centres unmarked) [Example 25-44, 6-[6-chloro-5-methoxy-2-(1-methylpropyl)indol-1-ylmethyl]pyridine-2-carboxylic acid], 51 nM.

The same assay, now with this note: as shown in Table 49.
As to “3-(5-methyl-2-phenylindol-1-yl)carboxylic acid [Comparative Example 1, reference compound]”, the “EP1 receptor antagonism (in words)” value is listed as “do not exhibit EP1 receptor antagonism”.

The values above are taken from patent US8680120B2, “Indole derivative or pharmaceutically acceptable salt thereof” (Kissei Pharmaceutical Co., Ltd., priority 2009, dated 2014).
